We go through 7 compounds from patent US20210017174A1, “IDENTIFICATION AND USE OF ERK5 INHIBITOR” (Bayer Aktiengesellschaft, priority 2018, published 2021).

In one experiment the target is T1, ERK5 (Homo sapiens, UniProt Q13164).
T1 construct: host or cells: E. coli
The experiment is described as follows: TR-FRET-based Erk5 activity inhibition assay (biochemical assay ERK5). The following applies: TR-FRET, 250 μM ATP, 1 μM substrate peptide, 60 min at 22° C.; read-out: IC50 value biochemiocal ERK5 asssay. (In general: Time-resolved FRET reads energy transfer from a long-lived donor to a nearby acceptor.)

In experiment [1] the test system is SN12C-MEF2-luc (clone #37) reporter cell line. Nature of the experiment: Luciferase reporter assay in SN12C-MEF2-luc cells (EGF-stimulated, MEF2-responsive luciferase).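 Note: serially diluted compounds at 37 °C, EGF with DMSO as maximum signal and EGF with a 10 µM reference inhibitor as minimum (full inhibition).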 The following applies: Homo sapiens, 16 h compound incubation, then EGF 100 ng/ml for 2 h, ONE-Glo luminescence. It counts as cell-based.

T1 sequence (Q13164 1-398): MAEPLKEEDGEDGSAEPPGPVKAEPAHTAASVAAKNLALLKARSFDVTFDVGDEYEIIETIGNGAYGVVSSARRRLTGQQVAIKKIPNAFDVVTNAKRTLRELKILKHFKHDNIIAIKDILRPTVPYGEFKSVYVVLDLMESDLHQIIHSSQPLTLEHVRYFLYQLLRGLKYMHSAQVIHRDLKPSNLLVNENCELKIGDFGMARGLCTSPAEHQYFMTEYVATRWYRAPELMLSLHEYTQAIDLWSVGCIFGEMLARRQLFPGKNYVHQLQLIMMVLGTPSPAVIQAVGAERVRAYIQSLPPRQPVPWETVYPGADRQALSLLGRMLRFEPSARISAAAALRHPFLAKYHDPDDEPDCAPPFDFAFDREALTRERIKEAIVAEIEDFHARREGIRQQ

Broadly, the IC50 is the concentration at which inhibition is half-maximal. For the compound `COC(=O)c1ccc2c(C3CCN(C(=O)c4ccc(OC(F)(F)F)cc4)CC3)ncnc2c1` [Example 31, Methyl 4-{1-[4-(trifluoromethoxy)benzoyl]piperidin-4-yl}quinazoline-7-carboxylate], the results for the 50% inhibitory concentration (IC50) (at ERK5; in experiment [1]) were 579 nM and 14600 nM, respectively.
For `CNC(=O)c1ccc2c(C3CCN(C(=O)c4ccc(OC(F)(F)F)cc4)CC3)ncnc2c1` [Example 41, N-Methyl-4-{1-[4-(trifluoromethoxy)benzoyl]piperidin-4-yl}quinazoline-7-carboxamide], the results for the 50% inhibitory concentration (IC50) (on ERK5; in experiment [1]) were 1090 nM and 7040 nM, respectively.
The corresponding values for `COc1ccc2c(C3CCN(C(=O)c4ccc(OC(F)(F)F)cc4NC(C)=O)CC3)ncnc2c1` [Example 67, N-[2-{[4-(7-Methoxyquinazolin-4-yl)piperidin-1-yl]carbonyl}-5-(trifluoro-methoxy)phenyl]acetamide] are 241 nM and 669 nM.
Regarding `O=C(c1ccc(OC(F)(F)F)cc1)N1CCC(c2ncnc3cc(C4CC4)ccc23)CC1` [Example 51, [4-(7-Cyclopropylquinazolin-4-yl)piperidin-1-yl][4-(trifluoromethoxy)phenyl]-methanone], the half-maximal inhibitory concentration (IC50) turned out to be 43 nM at ERK5 and 594 nM in experiment [1].
The corresponding values for `O=C(c1ccc(OC(F)(F)F)cc1)N1CCC(c2ncnc3cc(N4CCC(F)(F)CC4)cnc23)CC1` [Example 77, {4-[7-(4,4-Difluoropiperidin-1-yl)pyrido[3,2-d]pyrimidin-4-yl]piperidin-1-yl}[4-(trifluoromethoxy)phenyl]methanone] are 30.3 nM and 132 nM.
The like results for `COc1cc2ncnc(C3CCN(C(=O)c4ccc(SC(F)(F)F)cc4)CC3)c2cc1OC` [Example 16, [4-(6,7-Dimethoxyquinazolin-4-yl)piperidin-1-yl]{4-[(trifluoromethyl)sulfanyl]-phenyl}methanone] were, in that order, 159 nM and 1720 nM.
Turning to `COc1cc2ncnc(C3CCN(C(=O)c4ccc(OC(F)(F)F)cc4F)CC3)c2cc1OC` [Example 2, [4-(6,7-Dimethoxyquinazolin-4-yl)piperidin-1-yl][2-fluoro-4-(trifluoromethoxy)phenyl]methanone], the IC50 at ERK5 was determined as 93.1 nM; in experiment [1], 935 nM.
